Data from paper PMC4734667 (PLoS ONE, 2016).
Values after ≈ are worked out from the molar mass of the structure shown. Values joined by “and” are separate entries in the source; they are usually repeats but may differ in a detail not shown here. Equal entries are not always repeated. “Also recorded” adds a separate entry of the source. Where two headings read alike, the source gives them in different places.

Experiments:
Kinetic solubility = format: physicochemical; conditions: phosphate buffered saline, aqueous buffer, kinetic from dmso stock; in solution by HPLC after dissolution in DMSO and addition to saline
Description: Compounds were prepared as stock solutions at 20 mM in DMSO and diluted in DMSO to give a range of test concentrations 100-fold greater than final. Compounds were diluted 100-fold into phosphate buffered saline and incubated during mild shaking for 90 min at room temperature. Solutions were filtered through multiscreen solubility filter plate and the filtrate analyzed for compound concentration by HPLC-UV/PDA or LC-MS/MS.

[1] = Stability in pooled human liver microsomes; format: in vitro ADME; conditions: pH 7.4, 1 μM compound, read-out: HLM t½
Description: Human liver microsomes were prepared from pooled cryopreserved human hepatocytes (HEP10™, catalog number HMCS10, lot # HuE106, Life Technologies Corporation, Grand Island, NY). According to the vendor, the liver cells from lot HuE106 were derived from tissue obtained from accredited institutions. Consent was obtained by these institutions from the donors or the donor’s legal next of kin, for use of the tissue and its derivatives for research purposes. Microsomes were diluted into 66.7 mM potassium phosphate buffer (pH 7.4) to an approximate concentration of 0.5 mg/mL of microsomal protein. Test compounds (1 μM) were pre-incubated with the microsomes for 5 min at 37°C and then the reaction initiated by addition of […]. After different times up to 30 min, the reactions were quenched, clarified by centrifugation and remaining compound quantified by LC-MS/MS.

MDR1 = test: in vitro; format: in vitro ADME; conditions: dog, MDCK-MDR1; for Papp A→B: compound added on apical side (A-B), read-out: MDCK A-B permeability; for Papp B→A: compound added on basal side (B-A), read-out: MDCK B-A permeability
Description: MDCK cells transfected with MDR1 were maintained in monolayer culture for 3–4 days in 24-well transporter plates. Cultures with average TEER values of 600–800 Ohm x cm^2 were utilized for experimentation. Test compound was added to either the apical or basal membrane chamber and then efflux across the monolayer was monitored by quantifying compound with LC-MS/MS.

human GluN2A = target: T1, human GluN2A (Homo sapiens, UniProt Q05586+Q12879); test: Ca2+ fluorescence (fluo-8) assay in HEK cells expressing GluN2A; format: cell-based; conditions: for inhibition at 10 µM: HEK293, read-out: inhibition of GluN2A activity at 10 μM, 10 μM compound, HEK cell assay; for IC50: read-out: GluN2A IC50 (nM) ± SEM (n)
T1 construct: host or cells: HEK293, tetracycline-induced
Description: HEK293 cells expressing the human GRIN1/GRIN2A genes (Chantest Catalog #: CT6120) were grown as an adherent monolayer at 37°C, 5% CO2 in DMEM/Ham’s F12 + 10% tetracycline-screened FBS (Hyclone SH3007.03T) and 500 μg/ml G418. […] To prepare the cells for an experiment, they were rinsed with Dulbecco’s PBS (Ca^2+ and Mg^2+ free) and detached from the flask with TrypLE™ Express (Life Technologies, Carlsbad, CA) using the manufacturer’s recommended methods. Cells collected from the flask were washed twice in Ca^2+/Mg^2+-free Hanks Balanced Salt Solution + 20 mM HEPES (HBSS), and counted and assessed for viability with trypan blue. Washed cells were then dye-loaded by resuspending in Fluo-8/AM calcium sensitive dye plus Component B (AAT Bioquest, Sunnyvale, CA) diluted in HBSS. […] The cell plates were centrifuged at 200 x g, for 2 minutes at 21°C, to create a monolayer of cells at the bottom of the wells.
To initiate an assay, 10 μl of test compound or buffer was added to each well of the cell plate and pre-incubated for 10 minutes in the dark. After 10 minutes, the cell plate was placed in a FDSS 6000 plate reader (Hamamatsu Photonics, Middlesex, NJ); baseline fluorescence readings were collected for 20 seconds. Next, 25 μl of agonist solution (3 μM glutamate, 3 μM glycine, and 1 mM Ca^2+ in HBSS) was added and the change in fluorescence was recorded for 3 minutes.
Results were calculated by computing the ratio of maximum fluorescence achieved during agonist-addition phase vs. baseline fluorescence.

human GluN2B = target: T2, human GluN2B (Homo sapiens, UniProt Q05586+Q13224); test: Ca2+ fluorescence (fluo-8) assay in HEK cells expressing GluN2B; format: cell-based; conditions: for inhibition at 10 µM: HEK293, 10 μM compound, negative = increase in Ca2+ response, read-out: GluN2B % Inhib. @ 10 μM ± SEM (n)
T2 construct: expressed in transfected cells; host or cells: HEK cells

human GluN2D = target: T3, human GluN2D (Homo sapiens, UniProt O15399+Q05586); test: Ca2+ fluorescence (fluo-8) assay in HEK cells expressing GluN2D; format: cell-based; conditions: for inhibition at 10 µM: HEK293, 10 μM compound, negative = increase in Ca2+ response, read-out: GluN2D % Inhib. @ 10 μM ± SEM (n)
T3 construct: expressed in transfected cells; host or cells: HEK cells

[2] = test system: NMDA receptor (NMDA + glycine evoked currents); test: Whole-cell manual patch clamp of rat cortical neurons in primary culture; format: cell-based; conditions: 10 μM compound; NMDA 100 μM + glycine 10 μM; +40 mV; mean ± SEM
Description: Cortical neurons isolated from E18 rat embryos and cultured for two weeks were examined in whole-cell manual patch clamp experiments.
Cryopreserved E-18 rat cortical neurons (GIBCO A10840-02) were purchased from Life Technologies Italia (Monza, Italy).
Cortical neurons were thawed and plated at 5x10^4 or 10x10^4 cells/well in 35 x 100 mm tissue culture dishes containing poly-D-lysine treated glass coverslips, and maintained in the media and conditions recommended by the manufacturer for 13–15 days. […] Glycine (10 μM) was added in the extracellular solution or in the NMDA solution. Cells were patch clamped in the whole-cell configuration with a holding potential of -70 mV stepping once every minute to +20 or +40 mV for 10 s. Starting 1.5 s after each voltage step, 100 μM NMDA plus 10 μM glycine was applied using rapid local perfusion (RSC-200, Bio-Logic Science Instruments, Claix, France). Currents were evaluated at peak during the NMDA application, and current inhibition was computed using Prism software (GraphPad) once steady state was achieved.

uninjected oocytes = test: Endogenous currents in control (uninjected) oocytes; format: cell-based, Xenopus; conditions: concentrations up to 10 μM
Description: The cells were then gently aspirated with a Pasteur pipette to remove the follicular tissue; this was followed by washing three times with OR-2 to remove all traces of collagenase. The oocytes were then washed in ND-96 (96 mM NaCl, 2 mM KCl, 1.8 mM CaCl2, 1 mM MgCl2, 5 mM HEPES, 50 ng/L gentamycin, 100 units/ml penicillin and 100 μg/ml streptomycin; pH 7.6) three times and this was followed by incubation in ND-96 at room temperature with mild agitation for 15 minutes; subsequently they were stored for at least 2 hours at 16°C before sorting and selection for injection. Oocytes selected for injection were incubated overnight in ND-96 at 16°C.
Electrodes were filled with 3 M KCl and had resistances that ranged from 0.2–1 MΩ. All measurements were made at a holding potential of -40 mV. Cells were continuously perfused with oocyte recording solution containing 90 mM NaCl, 1 mM KCl, 0.5 mM BaCl2, and 10 mM HEPES (Ph 7.4). […] Co-agonists were applied until a plateau was reached, and test compounds were then added in the continued presence of co-agonists until a new plateau was reached. […] Fraction of current remaining was calculated as [(current in presence of test compound–background current) / (co-agonist current–background current)] and IC50 values were computed using Prism 6.0 (Graphpad).

NMDA receptor = NMDA receptor (Rattus norvegicus, UniProt P35439+Q00959); test: NMDA receptor-mediated fEPSPs in rat hippocampal slices (CA1, MEA); format: cell-based; conditions: 30 μM D-AP5
Description: Multi-electrode arrays (MEA) technology was used in the recording of hippocampal slices from 3 to 4 week-old male and female Sprague- Dawley rats (Elevage Janvier, Le Genest St Isle, France).
The rats were sacrificed by fast decapitation, without previous anesthesia. The brain was quickly removed and soaked in ice-cold oxygenated buffer with the following composition in mM: KCl 2, NaH2PO4 1.2, MgCl2 7, CaCl2 0.5, NaHCO3 26, glucose 11, and saccharose 250. […] Slice were placed in the center of a 3D-MEA to cover the electrode field (1.4 mm^2) and then immobilized with a netting ballast. […] NBQX (10 μM) was added to inhibit AMPA receptors. The bath was ground connected with a 1 M NaCl-Agar bridge.
All data were recorded with a MEA set-up from Multi Channel Systems MCS GmbH (Reutlingen, Germany) composed of a 4-channel stimulus generator and a 60-channel amplifier head-stage connected to a 60-channel A/D card. […]
Following visual observation through a CCD camera, one of the electrodes identified in the CA3 field (at CA3/CA1 border) was disconnected from its amplifier and used to stimulate Schaeffer collaterals. […] Simultaneous evoked field potentials were recorded from 3 to 6 electrodes in the CA1 stratum radiatum region, corresponding to the physiological propagation of the stimulus along the Schaffer collateral pathway. […]

EP4 = target: T4, EP4 (Homo sapiens, UniProt P35408); test: CEREP-80 panel ligand binding, EP4; conditions: read-out: inhibition of EP4 agonist binding
T4 construct: CEREP (panel CEREP-80)

[3] = test system: panel of receptors and enzymes relevant to CNS pharmacology (CEREP-80); test: CEREP-80 panel ligand binding, remainder of the panel; conditions: 1 μM
Text: […]. […] […]

5-HT2A = target: T5, 5-HT2A (Homo sapiens, UniProt P28223); test: CEREP-80 panel ligand binding, 5-HT2A; conditions: read-out: inhibition of 5-HT2A agonist binding
T5 construct: CEREP (panel CEREP-80)

AMPA receptor = test: AMPA receptor-mediated synaptic currents of pyramidal neurons in mouse visual cortex slices; format: cell-based; conditions: in the presence of 50 μM compound; controls 118±16 pA
Description: […]. […] […].
Wild-type (WT) mice and GRIN2A knock-out (KO) male mice were bred in house at Boston Children’s Hospital. The GRIN2A-KO colony was derived from mice originally obtained from M. Mishina (1995, University of Tokyo, Japan). All procedures using these mice were approved by the Boston Children’s Hospital Institutional Animal Care and Use Committee. Methods used were previously described in [30] and are summarized below.
Coronal visual cortical slices ([…]) were prepared from postnatal day (P)22–31 male mice following decapitation under isoflurane anesthesia. […]
Layer 2/3 pyramidal neurons were selected based on morphology under infrared differential interference contrast microscopy and their identity confirmed from a brief train of action potentials recorded prior to initiating voltage-clamp recordings. […] All data were acquired and analyzed using custom- made procedures in Igor-Pro Software (WaveMetrics, Lake Oswego, Oregon).
To estimate the relative contribution of NMDA and AMPA receptors to the synaptic current, the amplitude was measured at the time of the peak current at -100 mV for the AMPA receptor-mediated current and at the time point after the current at -100 mV had decayed to less than 5% of its peak amplitude for the NMDA receptor-mediated current. […]

5-HT1B = target: T6, 5-HT1B (Rattus norvegicus, UniProt P28564); test: CEREP-80 panel ligand binding, 5-HT1B; conditions: read-out: inhibition of 5-HT1B antagonist binding
T6 construct: CEREP (panel CEREP-80)

[4] = inhibition of Ca2+ response, HEK cells, glutamate and glycine 3 μM each
[5] = inhibition of Ca2+ response, HEK cells, glutamate and glycine 3 μM each, read-out: GluN2B IC50 (nM) ± SEM (n)
[6] = inhibition of Ca2+ response, HEK cells, glutamate and glycine 3 μM each, read-out: GluN2D IC50 (nM) ± SEM (n)

T3 sequence (O15399 28-1336, other chains not shown): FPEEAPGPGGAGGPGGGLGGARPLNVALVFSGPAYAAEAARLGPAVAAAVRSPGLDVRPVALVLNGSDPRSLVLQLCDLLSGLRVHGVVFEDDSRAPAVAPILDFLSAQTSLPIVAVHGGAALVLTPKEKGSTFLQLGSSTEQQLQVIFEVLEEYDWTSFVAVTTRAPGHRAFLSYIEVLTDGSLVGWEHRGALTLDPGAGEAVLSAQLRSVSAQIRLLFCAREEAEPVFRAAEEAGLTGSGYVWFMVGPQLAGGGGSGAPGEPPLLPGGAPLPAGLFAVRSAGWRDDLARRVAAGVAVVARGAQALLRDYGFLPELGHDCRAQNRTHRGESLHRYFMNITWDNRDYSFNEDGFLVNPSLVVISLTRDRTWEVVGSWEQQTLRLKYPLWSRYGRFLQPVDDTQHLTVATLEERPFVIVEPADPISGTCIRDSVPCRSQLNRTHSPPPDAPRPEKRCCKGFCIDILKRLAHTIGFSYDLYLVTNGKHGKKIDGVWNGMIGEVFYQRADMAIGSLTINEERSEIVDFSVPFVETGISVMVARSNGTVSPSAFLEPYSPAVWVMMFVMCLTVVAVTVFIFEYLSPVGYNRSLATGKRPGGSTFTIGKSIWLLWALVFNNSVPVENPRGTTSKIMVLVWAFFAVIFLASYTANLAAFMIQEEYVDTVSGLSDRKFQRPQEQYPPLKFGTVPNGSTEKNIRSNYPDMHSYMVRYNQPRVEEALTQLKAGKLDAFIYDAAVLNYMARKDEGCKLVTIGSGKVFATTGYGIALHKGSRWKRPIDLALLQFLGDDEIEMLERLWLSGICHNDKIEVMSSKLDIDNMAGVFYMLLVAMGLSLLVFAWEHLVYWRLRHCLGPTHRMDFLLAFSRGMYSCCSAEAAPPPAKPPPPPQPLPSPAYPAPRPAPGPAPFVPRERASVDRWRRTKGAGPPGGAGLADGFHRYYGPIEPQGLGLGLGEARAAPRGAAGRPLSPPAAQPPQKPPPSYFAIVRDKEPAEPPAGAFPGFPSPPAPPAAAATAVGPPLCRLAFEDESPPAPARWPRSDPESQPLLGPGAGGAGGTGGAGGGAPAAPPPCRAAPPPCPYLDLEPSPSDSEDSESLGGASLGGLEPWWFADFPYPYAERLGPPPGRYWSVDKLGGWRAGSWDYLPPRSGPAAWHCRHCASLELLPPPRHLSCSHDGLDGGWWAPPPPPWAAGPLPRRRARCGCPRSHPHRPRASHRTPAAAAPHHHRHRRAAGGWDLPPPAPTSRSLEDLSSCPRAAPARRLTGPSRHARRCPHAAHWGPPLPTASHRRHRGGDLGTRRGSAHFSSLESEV
T2 sequence (Q13224 27-1484, other chains not shown): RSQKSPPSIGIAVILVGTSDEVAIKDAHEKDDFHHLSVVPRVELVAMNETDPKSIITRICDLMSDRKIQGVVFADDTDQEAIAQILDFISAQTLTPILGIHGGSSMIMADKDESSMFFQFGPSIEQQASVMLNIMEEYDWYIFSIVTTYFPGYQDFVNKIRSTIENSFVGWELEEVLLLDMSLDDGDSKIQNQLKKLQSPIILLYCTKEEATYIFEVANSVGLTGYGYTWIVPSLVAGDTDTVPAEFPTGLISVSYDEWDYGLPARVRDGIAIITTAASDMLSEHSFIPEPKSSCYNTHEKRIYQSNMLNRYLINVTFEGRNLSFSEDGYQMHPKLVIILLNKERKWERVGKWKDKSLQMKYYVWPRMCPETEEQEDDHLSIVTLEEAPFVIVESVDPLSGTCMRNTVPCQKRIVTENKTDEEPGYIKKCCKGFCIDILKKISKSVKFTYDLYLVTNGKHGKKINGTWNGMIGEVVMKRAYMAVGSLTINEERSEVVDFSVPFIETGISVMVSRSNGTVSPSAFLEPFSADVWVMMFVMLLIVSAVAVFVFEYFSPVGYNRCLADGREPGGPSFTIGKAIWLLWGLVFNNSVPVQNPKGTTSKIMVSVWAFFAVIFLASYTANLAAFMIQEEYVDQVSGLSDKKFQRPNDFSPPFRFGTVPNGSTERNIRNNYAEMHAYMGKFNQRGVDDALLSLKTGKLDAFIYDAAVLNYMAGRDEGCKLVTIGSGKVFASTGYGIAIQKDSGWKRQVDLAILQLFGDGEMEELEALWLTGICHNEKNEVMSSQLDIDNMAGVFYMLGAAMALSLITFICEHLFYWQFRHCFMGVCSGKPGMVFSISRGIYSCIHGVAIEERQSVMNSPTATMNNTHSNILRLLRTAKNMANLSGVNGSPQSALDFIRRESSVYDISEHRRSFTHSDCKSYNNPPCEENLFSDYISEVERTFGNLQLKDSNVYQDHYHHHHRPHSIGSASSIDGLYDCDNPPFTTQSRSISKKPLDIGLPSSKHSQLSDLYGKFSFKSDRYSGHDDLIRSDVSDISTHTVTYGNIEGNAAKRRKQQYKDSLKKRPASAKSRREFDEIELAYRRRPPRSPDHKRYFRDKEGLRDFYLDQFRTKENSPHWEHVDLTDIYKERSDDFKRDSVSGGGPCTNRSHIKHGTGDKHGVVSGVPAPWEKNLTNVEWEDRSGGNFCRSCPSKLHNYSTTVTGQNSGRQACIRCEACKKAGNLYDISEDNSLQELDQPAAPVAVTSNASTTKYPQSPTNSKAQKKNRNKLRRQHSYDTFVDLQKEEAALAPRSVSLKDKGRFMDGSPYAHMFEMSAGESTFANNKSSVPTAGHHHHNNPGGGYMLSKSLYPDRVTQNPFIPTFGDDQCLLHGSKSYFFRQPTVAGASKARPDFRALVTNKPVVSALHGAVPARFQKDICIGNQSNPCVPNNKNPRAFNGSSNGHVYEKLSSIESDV
T1 sequence (Q12879 23-1464, other chains not shown): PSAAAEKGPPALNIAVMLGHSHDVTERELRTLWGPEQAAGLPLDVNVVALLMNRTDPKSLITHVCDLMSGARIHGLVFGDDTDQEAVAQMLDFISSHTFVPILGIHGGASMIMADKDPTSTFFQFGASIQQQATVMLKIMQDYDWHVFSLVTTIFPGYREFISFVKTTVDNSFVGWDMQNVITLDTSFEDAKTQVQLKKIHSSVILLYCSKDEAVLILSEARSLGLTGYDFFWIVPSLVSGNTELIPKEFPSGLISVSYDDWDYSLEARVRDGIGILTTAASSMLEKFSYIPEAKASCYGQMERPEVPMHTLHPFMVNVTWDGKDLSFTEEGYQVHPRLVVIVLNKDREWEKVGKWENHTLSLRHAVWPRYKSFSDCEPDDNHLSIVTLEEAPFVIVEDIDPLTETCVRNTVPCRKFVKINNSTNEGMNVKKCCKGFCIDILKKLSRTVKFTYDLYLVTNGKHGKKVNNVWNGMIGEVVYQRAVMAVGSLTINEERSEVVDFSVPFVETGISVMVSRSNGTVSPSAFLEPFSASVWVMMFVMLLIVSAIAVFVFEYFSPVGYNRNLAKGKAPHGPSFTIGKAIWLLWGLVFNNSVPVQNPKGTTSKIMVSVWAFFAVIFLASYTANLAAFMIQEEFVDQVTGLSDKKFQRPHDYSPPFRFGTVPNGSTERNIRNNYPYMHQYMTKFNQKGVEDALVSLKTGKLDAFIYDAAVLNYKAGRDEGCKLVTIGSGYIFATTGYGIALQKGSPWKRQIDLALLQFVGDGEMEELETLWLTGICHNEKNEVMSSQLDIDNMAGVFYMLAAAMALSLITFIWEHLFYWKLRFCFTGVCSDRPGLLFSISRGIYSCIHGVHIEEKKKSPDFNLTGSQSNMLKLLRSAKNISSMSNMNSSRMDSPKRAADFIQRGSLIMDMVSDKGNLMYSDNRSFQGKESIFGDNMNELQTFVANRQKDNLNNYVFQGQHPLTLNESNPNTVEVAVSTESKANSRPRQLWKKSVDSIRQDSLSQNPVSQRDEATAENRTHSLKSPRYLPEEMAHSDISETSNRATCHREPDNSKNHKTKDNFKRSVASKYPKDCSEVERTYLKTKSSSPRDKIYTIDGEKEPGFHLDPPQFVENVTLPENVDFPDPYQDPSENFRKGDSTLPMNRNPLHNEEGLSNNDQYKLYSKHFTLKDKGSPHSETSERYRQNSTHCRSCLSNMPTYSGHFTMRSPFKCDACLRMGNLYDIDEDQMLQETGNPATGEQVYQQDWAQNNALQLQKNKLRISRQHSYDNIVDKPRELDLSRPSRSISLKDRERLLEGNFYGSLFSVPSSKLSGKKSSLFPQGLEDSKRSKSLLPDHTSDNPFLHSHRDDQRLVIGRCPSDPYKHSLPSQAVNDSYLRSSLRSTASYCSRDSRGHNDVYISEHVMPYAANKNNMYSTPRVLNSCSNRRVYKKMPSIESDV
T6 sequence (P28564 whole entry): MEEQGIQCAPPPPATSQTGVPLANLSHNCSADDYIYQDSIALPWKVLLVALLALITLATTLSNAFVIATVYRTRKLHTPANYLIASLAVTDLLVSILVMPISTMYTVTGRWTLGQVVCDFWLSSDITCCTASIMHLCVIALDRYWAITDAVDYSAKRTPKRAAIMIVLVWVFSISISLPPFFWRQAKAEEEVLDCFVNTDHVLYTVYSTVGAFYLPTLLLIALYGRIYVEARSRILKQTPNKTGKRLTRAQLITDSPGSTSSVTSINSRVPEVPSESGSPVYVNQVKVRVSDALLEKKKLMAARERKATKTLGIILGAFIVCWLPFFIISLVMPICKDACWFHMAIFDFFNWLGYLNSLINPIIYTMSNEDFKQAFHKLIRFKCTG
T5 sequence (P28223 whole entry): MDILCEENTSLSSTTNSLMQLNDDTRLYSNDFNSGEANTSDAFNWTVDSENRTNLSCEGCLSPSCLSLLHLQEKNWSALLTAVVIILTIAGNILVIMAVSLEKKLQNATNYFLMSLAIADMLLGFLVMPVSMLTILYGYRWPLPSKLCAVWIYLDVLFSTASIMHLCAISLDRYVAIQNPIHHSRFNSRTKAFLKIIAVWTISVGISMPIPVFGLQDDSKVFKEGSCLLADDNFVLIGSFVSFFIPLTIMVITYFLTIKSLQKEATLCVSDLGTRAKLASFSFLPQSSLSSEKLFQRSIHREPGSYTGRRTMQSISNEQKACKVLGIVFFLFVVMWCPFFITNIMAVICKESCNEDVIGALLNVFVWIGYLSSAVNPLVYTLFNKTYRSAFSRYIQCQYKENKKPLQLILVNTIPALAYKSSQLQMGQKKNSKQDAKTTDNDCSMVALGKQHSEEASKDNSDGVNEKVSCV

O=C(NNC(=O)c1ccc(CNS(=O)(=O)c2ccc(F)c(Cl)c2)cc1)c1ccccc1 [TCN-201, 3-chloro-4-fluoro-N-[4-[[2-(phenylcarbonyl)hydrazino]carbonyl]benzyl]benzenesulfonamide, reference compound]
solubility at 90 min (Kinetic solubility): 8 µM (≈ 3.7 µg/mL) | half-life at 1 μM [1]: 19 min | Papp A→B (MDR1): 7.5 ×10⁻⁶ cm/s | Papp B→A (MDR1): 58.9 ×10⁻⁶ cm/s

Cc1ncc(CNC(=O)c2cnc(CNS(=O)(=O)c3ccc(Cl)c(F)c3)c(C)n2)s1 [compound 8]
inhibition at 10 µM (human GluN2A): > 95% | IC50 (human GluN2A): 971 ± 242 nM | inhibition at 10 µM (human GluN2B): -7 ± 2% | inhibition at 10 µM (human GluN2D): 6 ± 6%

Cc1ncc(CNC(=O)c2cnc(CNS(=O)(=O)c3ccc(F)c(F)c3)cn2)s1 [compound 5]
inhibition at 10 µM (human GluN2A): > 95% | IC50 (human GluN2A): 116 ± 22 nM | inhibition at 10 µM (human GluN2B): -8 ± 2% | inhibition at 10 µM (human GluN2D): -10 ± 5%

C[C@]12N[C@H](Cc3ccccc31)c1ccccc12 [MK-801, reference compound]
IC50 (human GluN2B): 75 ± 4 nM | IC50 (human GluN2D): 87 ± 3 nM

O=C(O)c1cc(=O)c2c(Cl)cc(Cl)cc2[nH]1 [5,7-DCKA, reference compound]
IC50 (human GluN2A; [4]): 1170 ± 230 nM | IC50 (human GluN2B; [5]): 8400 ± 1400 nM | IC50 (human GluN2D; [6]): > 10000 nM

N[C@@H](Cc1ccccn1)c1ccccc1 [ARL-15896, reference compound]
IC50 (human GluN2B; [5]): 510000 nM | IC50 (human GluN2D; [6]): 25000 nM

Ro 25–6981
block of NMDA + glycine evoked currents in rat cortical neurons [2]: 72 ± 5% and ~ 70%

Cc1ncc(CNC(=O)c2cnc(CNS(=O)(=O)c3ccc(F)c(F)c3)c(C)n2)s1 [MPX-007]
inhibition of currents in control (uninjected) oocytes (uninjected oocytes): no effect; also recorded: No inhibition | solubility at 90 min (Kinetic solubility): 68 µM (≈ 30.8 µg/mL) | half-life at 1 μM [1]: 63 min | Papp A→B (MDR1): 14.2 ×10⁻⁶ cm/s | Papp B→A (MDR1): 76.8 ×10⁻⁶ cm/s

NC(CCCP(=O)(O)O)C(=O)O [D-AP5]
block of fEPSPs by D-AP5 at the conclusion of each experiment (NMDA receptor): completely blocked

Cc1ncc(CNC(=O)c2cnc(CNS(=O)(=O)c3ccc(F)c(Cl)c3)cn2)s1 [MPX-004, 5-(((3-chloro-4-fluorophenyl)sulfonamido)methyl)-N-((2-methylthiazol-5-yl)methyl)pyrazine-2-carboxamide]
solubility at 90 min (Kinetic solubility): 16 µM (≈ 7.29 µg/mL) | inhibition at 1 µM (EP4): 27% | effects on binding of ligands in the remainder of the panel [3]: less than 25% | half-life at 1 μM [1]: 53 min | Papp A→B (MDR1): 17.3 ×10⁻⁶ cm/s | Papp B→A (MDR1): 66.1 ×10⁻⁶ cm/s | inhibition at 1 µM (5-HT2A): 31% | AMPA receptor-mediated synaptic currents (AMPA receptor): 118±21 pA | inhibition at 1 µM (5-HT1B): 35%

Cc1ncc(CNC(=O)c2cnc(CN(C)S(=O)(=O)c3ccc(F)c(Cl)c3)c(C)n2)s1 [compound 10]
inhibition at 10 µM (human GluN2A): > 95% | IC50 (human GluN2A): 242 ± 61 nM

O=C(O)[C@@H]1[C@H](C(=O)O)NCCN1C(=O)c1ccc2c(ccc3ccccc32)c1 [PPDA, reference compound]
IC50 (human GluN2A; [4]): 4860 ± 960 nM | IC50 (human GluN2B; [5]): 8490 ± 1000 nM | IC50 (human GluN2D; [6]): 34800 nM

Cc1ncc(CNC(=O)c2cnc(CNS(=O)(=O)c3ccc(F)c(Cl)c3)c(C)n2)s1 [compound 7]
inhibition at 10 µM (human GluN2A): > 95% | IC50 (human GluN2A): 18 ± 2 nM | inhibition at 10 µM (human GluN2B): -8 ± 1% | inhibition at 10 µM (human GluN2D): -1 ± 2%

Cc1ncc(CNC(=O)c2ccc(CNS(=O)(=O)c3ccc(F)c(Cl)c3)cc2)s1 [compound 2]
inhibition at 10 µM (human GluN2A): > 95% | IC50 (human GluN2A): 398 ± 90 nM | inhibition at 10 µM (human GluN2B): 4 ± 1% | inhibition at 10 µM (human GluN2D): -6 ± 2%

Cc1ncc(CNC(=O)c2ccc(CNS(=O)(=O)c3ccc(F)c(Cl)c3)cn2)s1 [compound 3]
inhibition at 10 µM (human GluN2A): > 95% | IC50 (human GluN2A): 75 ± 13 nM | inhibition at 10 µM (human GluN2B): 1 ± 1% | inhibition at 10 µM (human GluN2D): -6 ± 2%

C[C@@H]([C@@H](O)c1ccc(O)cc1)N1CCC(O)(c2ccccc2)CC1 [CP-101,606, reference compound]
IC50 (human GluN2A; [4]): > 10000 nM | IC50 (human GluN2D; [6]): > 10000 nM

Cc1ncc(CNC(=O)c2ccc(CNS(=O)(=O)c3ccc(F)c(F)c3)cn2)s1 [compound 6]
inhibition at 10 µM (human GluN2A): > 95% | IC50 (human GluN2A): 158 ± 30 nM | inhibition at 10 µM (human GluN2B): -1 ± 1% | inhibition at 10 µM (human GluN2D): -13 ± 10%
